Columns and labels:
BE(2)-C cell = experiment: Cell proliferation assay (MTS) in BE(2)-C cells; assay type: cell-based; conditions: Homo sapiens, inhibition of BE(2)-C cell proliferation, 48 h
In short: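 BE(2)-C cells (3000/well, DMEM + 10% FBS) were treated for 48 h at 37 °C with compound at 1.5–10000 nM in nine concentrations. Viability was measured by MTS (2 h, stopped with SDS) at 490/650 nm, and IC50 was calculated from the dose-response.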

COLO205 xenograft tumors = experiment: Tumor growth inhibition in COLO205 xenograft tumors; assay type: in vivo; conditions: 30 mg/kg; for Average Tumor Volume D0: D0, in mm³; for Average Tumor Volume D21: D21, in mm³
Method: COLO205 cells were cultured with RPMI-1640 medium containing 10% fetal bovine serum (FBS) at 37° C. in 5% CO2 incubator. Logarithmic growth phase cells were collected. COLO205 cells (5×10^6 in 200 μL PBS) were implanted subcutaneously into the left flank region, and tumor growth was monitored. Tumor volume (V) was estimated from the length (l) and width (w) of the tumor using the following formula: V=1/2×l×w^2. Treatment started when average tumor size was 100-150 mm^3. Measuring subcutaneous tumor volume 2 to 3 times every week. Drug efficacy was assessed as Tumor Growth Inhibition (TGI) and Tumor increment rate T/C (%). TGI was defined as (1−T/C)×100%, wherein T/C (%) presented the ratio of the change in mean tumor volume of the treated group and of the control group.

CDK1/cyclin B = biological target: T1, CDK1/cyclin B (Homo sapiens, UniProt P06493); experiment: CDK kinase inhibition assay (33P-ATP HotSpot filter binding); assay type: biochemical; conditions: substrate Histone H1, 10 μM ATP
T1 construct: purchased Invitrogen PR4768C
T1 sequence (P06493 whole entry): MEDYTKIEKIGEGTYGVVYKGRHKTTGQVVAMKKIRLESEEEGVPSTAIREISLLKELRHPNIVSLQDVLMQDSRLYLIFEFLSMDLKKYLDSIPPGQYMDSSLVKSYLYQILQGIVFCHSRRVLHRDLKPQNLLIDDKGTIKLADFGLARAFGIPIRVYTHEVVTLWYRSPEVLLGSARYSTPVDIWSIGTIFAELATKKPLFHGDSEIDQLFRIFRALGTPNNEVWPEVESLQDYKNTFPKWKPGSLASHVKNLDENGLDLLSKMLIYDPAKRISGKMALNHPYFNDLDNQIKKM
T1 sequence (P14635 whole entry partner): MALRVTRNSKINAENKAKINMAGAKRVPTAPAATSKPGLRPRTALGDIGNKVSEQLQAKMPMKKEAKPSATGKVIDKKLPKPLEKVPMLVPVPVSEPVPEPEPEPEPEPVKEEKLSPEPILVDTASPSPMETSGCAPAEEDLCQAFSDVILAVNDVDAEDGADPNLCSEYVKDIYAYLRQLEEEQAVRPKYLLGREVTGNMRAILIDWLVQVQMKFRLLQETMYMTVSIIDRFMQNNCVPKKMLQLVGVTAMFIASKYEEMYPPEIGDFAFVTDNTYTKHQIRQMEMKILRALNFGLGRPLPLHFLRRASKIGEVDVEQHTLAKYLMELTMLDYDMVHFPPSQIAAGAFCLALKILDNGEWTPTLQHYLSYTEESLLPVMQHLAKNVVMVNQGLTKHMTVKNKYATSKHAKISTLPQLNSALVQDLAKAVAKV
Method: (§1) Testing compounds were dissolved in 100% DMSO to specific concentration. Compounds were tested in 10-dose mode with 3-fold serial dilution starting at 100 μM. The serial dilution was conducted by epMotion 5070 in DMSO.
(§2) Each substrate was prepared in freshly prepared Reaction Buffer (20 mM Hepes (pH 7.5), 10 mM MgCl2, 1 mM EGTA, 0.02% Brij35, 0.02 mg/ml BSA, 0.1 mM Na3VO4, 2 mM DTT, 1% DMSO). Each kinase was delivered into the substrate solution and the solution was gently mixed. 0.05 μL Compounds were delivered into 5 μL kinase reaction mixture in a 384 well plate by Acoustic technology (Echo550; nanoliter range), and the mixture was incubated for 20 min at room temperature. 0.01 μL of 5 mM ATP with ^33P-ATP (PerkinElmer, Cat# NEG602H001MC, Specific activity […]) was delivered into the reaction mixture to initiate the reaction, and the final concentration of ATP in the mixture was 10 μM. The resulted solutions were incubated for 2 hours at room temperature, the radioactivity incorporated is determined by the proprietary “HotSpot” platform, which is a miniaturized filter-binding method (using this paper as reference: Anastassiadis et al, 2011 Nature Biotech) IC50 value of each compound was generated using GraphPad Prism software.
(§3) Select compounds prepared as described above were assayed according to the biological procedures described herein.

CDK2/cyclin A = biological target: T2, CDK2/cyclin A (Homo sapiens, UniProt P24941); experiment: as above; assay type: biochemical; conditions: substrate Histone H1, 10 μM ATP
T2 construct: purchased Invitrogen PR4448B
Method: as §1, §2, §3

CDK4/cyclin D1 = biological target: T3, CDK4/cyclin D1 (Homo sapiens, UniProt P11802); experiment: as above; assay type: biochemical; conditions: substrate RB Protein, 10 μM ATP
T3 construct: purchased Invitrogen PV4436
T3 sequence (P11802 whole entry): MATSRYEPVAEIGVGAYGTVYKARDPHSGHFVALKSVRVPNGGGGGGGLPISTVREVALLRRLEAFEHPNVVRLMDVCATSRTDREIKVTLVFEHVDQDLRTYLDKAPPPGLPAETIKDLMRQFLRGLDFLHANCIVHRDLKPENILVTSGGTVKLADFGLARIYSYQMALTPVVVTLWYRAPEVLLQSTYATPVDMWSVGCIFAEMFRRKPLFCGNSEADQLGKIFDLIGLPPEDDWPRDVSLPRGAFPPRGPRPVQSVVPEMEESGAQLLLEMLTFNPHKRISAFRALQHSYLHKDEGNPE
T3 sequence (P24385 whole entry partner): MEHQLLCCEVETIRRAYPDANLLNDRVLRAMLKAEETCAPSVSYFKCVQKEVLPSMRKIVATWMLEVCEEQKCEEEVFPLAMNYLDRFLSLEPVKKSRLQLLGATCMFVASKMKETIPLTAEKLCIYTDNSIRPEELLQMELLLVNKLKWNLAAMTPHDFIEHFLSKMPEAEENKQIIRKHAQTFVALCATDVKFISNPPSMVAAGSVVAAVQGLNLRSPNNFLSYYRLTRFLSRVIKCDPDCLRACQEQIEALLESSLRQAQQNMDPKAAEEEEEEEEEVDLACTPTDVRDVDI
Method: as §1, §2, §3

CDK6/cyclin D1 = biological target: T4, CDK6/cyclin D1 (Homo sapiens, UniProt Q00534); experiment: as above; assay type: biochemical; conditions: substrate RB Protein, 10 μM ATP
T4 construct: purchased Invitrogen PR8422B
T4 sequence (Q00534 whole entry): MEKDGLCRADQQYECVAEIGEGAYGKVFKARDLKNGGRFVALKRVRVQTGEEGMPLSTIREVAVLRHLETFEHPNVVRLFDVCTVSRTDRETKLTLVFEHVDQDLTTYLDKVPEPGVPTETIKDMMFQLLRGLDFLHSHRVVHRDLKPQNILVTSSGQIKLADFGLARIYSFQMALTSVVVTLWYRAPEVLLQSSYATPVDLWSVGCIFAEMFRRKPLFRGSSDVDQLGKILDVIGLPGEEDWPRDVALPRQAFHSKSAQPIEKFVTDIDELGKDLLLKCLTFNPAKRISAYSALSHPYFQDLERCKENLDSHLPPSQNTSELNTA
T4 sequence (P24385 whole entry partner): as the sequence (P24385 whole entry partner) above
Method: as §1, §2, §3

SMILES	IC50 (BE(2)-C cell) [µM]	further results
CN1CCN(Cc2ccc(Nc3ncc(F)c(-c4cc(F)c5nc6n(c5c4)[C@H](C(F)F)CC6)n3)nc2)CC1 [Example 11, (S)-4-(1-(difluoromethyl)-5-fluoro-2,3-dihydro-1H-benzo[d]pyrrolo[1,2-a]imidazol-7-yl)-5-fluoro-N-(5-((4-methylpiperazin-1-yl)methyl)pyridin-2-yl)pyrimidin-2-amine]	0.01 to 0.1	Average Tumor Volume D0 (COLO205 xenograft tumors): 110 ± 3.2; T/C % D21 (COLO205 xenograft tumors): 28%; TGI % D21 (COLO205 xenograft tumors): 72%; Average Tumor Volume D21 (COLO205 xenograft tumors): 570 ± 57
CCN1CCN(Cc2ccc(Nc3ncc(F)c(-c4cc(F)c5nc6n(c5c4)[C@H](C(F)F)CC6)n3)nc2)CC1 [Example 12, (S)-4-(1-(difluoromethyl)-5-fluoro-2,3-dihydro-1H-benzo[d]pyrrolo[1,2-a]imidazol-7-yl)-N-(5-((4-ethylpiperazin-1-yl)methyl)pyridin-2-yl)-5-fluoropyrimidin-2-amine]	0.01 to 0.1	IC50 (CDK1/cyclin B): 0.403 µM; IC50 (CDK2/cyclin A): 0.0505 µM; IC50 (CDK4/cyclin D1): < 0.005 µM; IC50 (CDK6/cyclin D1): < 0.005 µM; Average Tumor Volume D0 (COLO205 xenograft tumors): 113 ± 3.4; T/C % D21 (COLO205 xenograft tumors): 29%; TGI % D21 (COLO205 xenograft tumors): 71%; Average Tumor Volume D21 (COLO205 xenograft tumors): 584 ± 86
CN1CCN(c2ccc(Nc3ncc(F)c(-c4cc(F)c5nc6n(c5c4)[C@H](C(F)F)CC6)n3)nc2)CC1 [Example 39, (S)-4-(1-(difluoromethyl)-5-fluoro-2,3-dihydro-1H-benzo[d]pyrrolo[1,2-a]imidazol-7-yl)-5-fluoro-N-(5-(4-methylpiperazin-1-yl)pyridin-2-yl)pyrimidin-2-amine]	> 0.1	IC50 (CDK1/cyclin B): 0.0505 µM; IC50 (CDK2/cyclin A): 0.0192 µM; IC50 (CDK4/cyclin D1): < 0.005 µM; IC50 (CDK6/cyclin D1): < 0.005 µM
Fc1cnc(Nc2ccc(CN3CCNCC3)cn2)nc1-c1cc(F)c2nc3n(c2c1)[C@@H](C(F)F)CC3 [Example 152, (R)-4-(1-(difluoromethyl)-5-fluoro-2,3-dihydro-1H-benzo[d]pyrrolo[1,2-a]imidazol-7-yl)-5-fluoro-N-(5-(piperazin-1-ylmethyl)pyridin-2-yl)pyrimidin-2-amine]	> 1	–
CN1CCN(Cc2ccc(Nc3ncc(F)c(-c4cc(F)c5nc6n(c5c4)[C@@H](C(F)F)CC6)n3)nc2)CC1 [Example 153, (R)-4-(1-(difluoromethyl)-5-fluoro-2,3-dihydro-1H-benzo[d]pyrrolo[1,2-a]imidazol-7-yl)-5-fluoro-N-(5-((4-methylpiperazin-1-yl)methyl)pyridin-2-yl)pyrimidin-2-amine]	> 1	–
CCN1CCN(Cc2ccc(Nc3ncc(F)c(-c4cc(F)c5nc6n(c5c4)[C@@H](C(F)F)CC6)n3)nc2)CC1 [Example 154, (R)-4-(1-(difluoromethyl)-5-fluoro-2,3-dihydro-1H-benzo[d]pyrrolo[1,2-a]imidazol-7-yl)-N-(5-((4-ethylpiperazin-1-yl)methyl)pyridin-2-yl)-5-fluoropyrimidin-2-amine]	> 1	–
COC[C@H]1CCc2nc3c(F)cc(-c4nc(Nc5ccc(CN6CCNCC6)cn5)ncc4F)cc3n21 [Example 158, (R)-5-fluoro-4-(5-fluoro-1-(methoxymethyl)-2,3-dihydro-1H-benzo[d]pyrrolo[1,2-a]imidazol-7-yl)-N-(5-(piperazin-1-ylmethyl)pyridin-2-yl)pyrimidin-2-amine]	> 1	–
COC[C@H]1CCc2nc3c(F)cc(-c4nc(Nc5ccc(CN6CCN(C)CC6)cn5)ncc4F)cc3n21 [Example 159, (R)-5-fluoro-4-(5-fluoro-1-(methoxymethyl)-2,3-dihydro-1H-benzo[d]pyrrolo[1,2-a]imidazol-7-yl)-N-(5-((4-methylpiperazin-1-yl)methyl)pyridin-2-yl)pyrimidin-2-amine]	> 1	–
CCN1CCN(Cc2ccc(Nc3ncc(F)c(-c4cc(F)c5nc6n(c5c4)[C@@H](COC)CC6)n3)nc2)CC1 [Example 160, (R)-N-(5-((4-ethylpiperazin-1-yl)methyl)pyridin-2-yl)-5-fluoro-4-(5-fluoro-1-(methoxymethyl)-2,3-dihydro-1H-benzo[d]pyrrolo[1,2-a]imidazol-7-yl)pyrimidin-2-amine]	> 0.1	–
CC1(C)CCc2nc3c(F)cc(-c4cc(Nc5ccc(CN6C7CCC6CNC7)cn5)ncc4F)cc3n21 [Example 161, N-(5-((3,8-diazabicyclo[3.2.1]octan-8-yl)methyl)pyridin-2-yl)-5-fluoro-4-(5-fluoro-1,1-dimethyl-2,3-dihydro-1H-benzo[d]pyrrolo[1,2-a]imidazol-7-yl)pyridin-2-amine]	> 0.1	–
CN1CC2CCC(C1)N2Cc1ccc(Nc2cc(-c3cc(F)c4nc5n(c4c3)C(C)(C)CC5)c(F)cn2)nc1 [Example 162, 5-fluoro-4-(5-fluoro-1,1-dimethyl-2,3-dihydro-1H-benzo[d]pyrrolo[1,2-a]imidazol-7-yl)-N-(5-((3-methyl-3,8-diazabicyclo[3.2.1]octan-8-yl)methyl)pyridin-2-yl)pyridin-2-amine]	> 1	–
CCN1CC2CCC(C1)N2Cc1ccc(Nc2cc(-c3cc(F)c4nc5n(c4c3)C(C)(C)CC5)c(F)cn2)nc1 [Example 163, N-(5-((3-ethyl-3,8-diazabicyclo[3.2.1]octan-8-yl)methyl)pyridin-2-yl)-5-fluoro-4-(5-fluoro-1,1-dimethyl-2,3-dihydro-1H-benzo[d]pyrrolo[1,2-a]imidazol-7-yl)pyridin-2-amine]	> 1	–
CC1(C)CCc2nc3c(F)cc(-c4cc(Nc5ncc(CN6CCNCC6)cn5)ncc4F)cc3n21 [Example 164, N-(5-fluoro-4-(5-fluoro-1,1-dimethyl-2,3-dihydro-1H-benzo[d]pyrrolo[1,2-a]imidazol-7-yl)pyridin-2-yl)-5-(piperazin-1-ylmethyl)pyrimidin-2-amine]	0.01 to 0.1	–
CN1CCN(Cc2cnc(Nc3cc(-c4cc(F)c5nc6n(c5c4)C(C)(C)CC6)c(F)cn3)nc2)CC1 [Example 165, N-(5-fluoro-4-(5-fluoro-1,1-dimethyl-2,3-dihydro-1H-benzo[d]pyrrolo[1,2-a]imidazol-7-yl)pyridin-2-yl)-5-((4-methylpiperazin-1-yl)methyl)pyrimidin-2-amine]	> 0.1	–
CCN1CCN(Cc2cnc(Nc3cc(-c4cc(F)c5nc6n(c5c4)C(C)(C)CC6)c(F)cn3)nc2)CC1 [Example 166, 5-((4-ethylpiperazin-1-yl)methyl)-N-(5-fluoro-4-(5-fluoro-1,1-dimethyl-2,3-dihydro-1H-benzo[d]pyrrolo[1,2-a]imidazol-7-yl)pyridin-2-yl)pyrimidin-2-amine]	> 0.1	–
CC1(C)CCc2nc3ncc(-c4cc(Nc5ccc(CN6C7CCC6CNC7)cn5)ncc4F)cc3n21 [Example 167, N-(5-((3,8-diazabicyclo[3,2,1]octan-8-yl)methyl)pyridin-2-yl)-4-(6,6-dimethyl-7,8-dihydro-6H-pyrrolo[1′,2′:1,2]imidazo[4,5-b]pyridin-3-yl)-5-fluoropyridin-2-amine]	0.01 to 0.1	–
CN1CC2CCC(C1)N2Cc1ccc(Nc2cc(-c3cnc4nc5n(c4c3)C(C)(C)CC5)c(F)cn2)nc1 [Example 168, 4-(6,6-dimethyl-7,8-dihydro-6H-pyrrolo[1′,2′:1,2]imidazo[4,5-b]pyridin-3-yl)-5-fluoro-N-(5-((3-methyl-3,8-diazabicyclo[3.2.1]octan-8-yl)methyl)pyridin-2-yl)pyridin-2-amine]	> 0.1	–
CCN1CC2CCC(C1)N2Cc1ccc(Nc2cc(-c3cnc4nc5n(c4c3)C(C)(C)CC5)c(F)cn2)nc1 [Example 169, 4-(6,6-dimethyl-7,8-dihydro-6H-pyrrolo[1′,2′:1,2]imidazo[4,5-b]pyridin-3-yl)-N-(5-((3-ethyl-3,8-diazabicyclo[3.2.1]octan-8-yl)methyl)pyridin-2-yl)-5-fluoropyridin-2-amine]	> 0.1	–

Reference: patent US10450316B2, “Certain protein kinase inhibitor” (Chongqing Fochon Pharmaceutical Co., Ltd., priority 2015, dated 2019)
